Calls of active or inactive are those of the source.
Columns and labels:
[1] = target: T1, Aryl hydrocarbon receptor (Homo sapiens, UniProt P35869); experiment: Luminescence-based cell-based high throughput dose response assay for activators of the Aryl Hydrocarbon Receptor (AHR). [Related pubchem assays: 2796 (Primary screen (AHR activators in singlicate)), 2845 (Confirmation screen (AHR activators in triplicate)), 434939 (Counterscreen (PXR activators in triplicate)), 2804 (Summary (AHR activators))]; type: ADME
T1 sequence (P35869 whole entry): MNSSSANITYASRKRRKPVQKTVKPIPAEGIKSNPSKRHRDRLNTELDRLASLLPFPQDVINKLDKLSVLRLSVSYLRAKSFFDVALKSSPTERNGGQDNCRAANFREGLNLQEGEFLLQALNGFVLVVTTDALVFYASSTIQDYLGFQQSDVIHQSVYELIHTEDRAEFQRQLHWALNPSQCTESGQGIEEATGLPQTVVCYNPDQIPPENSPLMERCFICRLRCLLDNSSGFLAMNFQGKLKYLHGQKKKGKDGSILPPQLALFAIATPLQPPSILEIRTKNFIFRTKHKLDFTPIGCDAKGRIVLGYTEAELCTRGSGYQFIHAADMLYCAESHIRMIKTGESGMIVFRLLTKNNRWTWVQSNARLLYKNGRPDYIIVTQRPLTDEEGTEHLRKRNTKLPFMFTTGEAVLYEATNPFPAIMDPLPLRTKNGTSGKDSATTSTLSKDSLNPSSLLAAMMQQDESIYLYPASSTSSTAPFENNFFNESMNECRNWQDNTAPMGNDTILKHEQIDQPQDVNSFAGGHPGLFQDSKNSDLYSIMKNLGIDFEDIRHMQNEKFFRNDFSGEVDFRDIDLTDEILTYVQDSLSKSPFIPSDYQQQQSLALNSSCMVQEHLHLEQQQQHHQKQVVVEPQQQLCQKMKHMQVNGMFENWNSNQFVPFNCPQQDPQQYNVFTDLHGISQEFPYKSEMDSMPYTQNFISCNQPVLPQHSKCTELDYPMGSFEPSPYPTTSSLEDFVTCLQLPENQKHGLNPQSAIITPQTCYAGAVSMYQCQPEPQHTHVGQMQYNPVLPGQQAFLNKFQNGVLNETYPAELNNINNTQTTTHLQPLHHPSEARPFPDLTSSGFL

Fatty acid synthase [2] = target: T2, Fatty acid synthase (Homo sapiens, UniProt P49327); experiment: inhibition of human FAS-TE enzyme activity – biochemical, endpoint fluorescence intensity, uHTS hits, dose response (AID 624327); type: functional;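 note: fluorescence from hydrolysis of an O-methyl fluorescein acyl ester substrate by the enzyme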
Fatty acid synthase [3] = target: T2, Fatty acid synthase; experiment: inhibition of human FAS-TE enzyme activity – biochemical, kinetic fluorescence intensity, dose response (AID 624326); type: functional;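 note: rate of fluorescence rise from hydrolysis of a fluorogenic O-methyl fluorescein ester substrate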
Estrogen receptor beta [4] = target: T3, Estrogen receptor beta (Homo sapiens, UniProt Q92731);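 note: recombinant ER-beta bound to coactivator SRC1 peptide in presence of estradiol agonist; inhibitors block coactivator peptide binding and lower the FRET signal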
Estrogen receptor beta [5] = target: T3, Estrogen receptor beta; experiment: blockers of SRC-3 recruitment to ERβ – biochemical, ELISA, streptavidin-HRP readout, orthogonal assay, confirmation (AID 1060)
[6] = Luminescence Cell-Based Dose Response HTS to Identify Inhibitors of 5'UTR Stem-Loop Driven Prion Protein mRNA Translation in H4 Neuroglioblastoma Cells. [Related pubchem assays: 1827 (Project Summary), 1813 (Primary HTS)]; type: functional
[7] = target: Mitogen-activated protein kinase 10 (Homo sapiens, UniProt P53779); experiment: Dose response biochemical screening assay for inhibitors of c-Jun N-Terminal Kinase 3 (JNK3). [Related pubchem assays: 746 ]
[8] = luciferase reporter signal suppression in cells – H4 neuroglioma cells, luminescence, dose response (AID 1990); type: functional, cell-based
[9] = alpha-synuclein stem-loop luciferase translation blockers – H4 neuroglioma cells, luminescence, confirmation (AID 1988); type: functional, cell-based
[10] = target: T4, Sentrin-specific protease 8 (Homo sapiens, UniProt Q96LD8); type: functional
T4 sequence (Q96LD8 whole entry): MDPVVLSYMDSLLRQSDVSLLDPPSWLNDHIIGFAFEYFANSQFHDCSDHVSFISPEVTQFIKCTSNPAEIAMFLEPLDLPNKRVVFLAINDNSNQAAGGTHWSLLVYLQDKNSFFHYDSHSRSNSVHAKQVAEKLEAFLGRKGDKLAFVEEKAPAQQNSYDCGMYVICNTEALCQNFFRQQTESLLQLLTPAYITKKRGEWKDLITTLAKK

Protein RecA = target: T5, Protein RecA (Mycobacterium tuberculosis, UniProt P9WHJ3); experiment: Fluorescence Cell-Free Homogeneous Dose Retest to Identify Inhibitors of RecA-Intein Splicing Activity. [Related pubchem assays (depositor defined):AID2097, AID2223, AID489010, AID492950]; type: functional
T5 sequence (P9WHJ3 whole entry): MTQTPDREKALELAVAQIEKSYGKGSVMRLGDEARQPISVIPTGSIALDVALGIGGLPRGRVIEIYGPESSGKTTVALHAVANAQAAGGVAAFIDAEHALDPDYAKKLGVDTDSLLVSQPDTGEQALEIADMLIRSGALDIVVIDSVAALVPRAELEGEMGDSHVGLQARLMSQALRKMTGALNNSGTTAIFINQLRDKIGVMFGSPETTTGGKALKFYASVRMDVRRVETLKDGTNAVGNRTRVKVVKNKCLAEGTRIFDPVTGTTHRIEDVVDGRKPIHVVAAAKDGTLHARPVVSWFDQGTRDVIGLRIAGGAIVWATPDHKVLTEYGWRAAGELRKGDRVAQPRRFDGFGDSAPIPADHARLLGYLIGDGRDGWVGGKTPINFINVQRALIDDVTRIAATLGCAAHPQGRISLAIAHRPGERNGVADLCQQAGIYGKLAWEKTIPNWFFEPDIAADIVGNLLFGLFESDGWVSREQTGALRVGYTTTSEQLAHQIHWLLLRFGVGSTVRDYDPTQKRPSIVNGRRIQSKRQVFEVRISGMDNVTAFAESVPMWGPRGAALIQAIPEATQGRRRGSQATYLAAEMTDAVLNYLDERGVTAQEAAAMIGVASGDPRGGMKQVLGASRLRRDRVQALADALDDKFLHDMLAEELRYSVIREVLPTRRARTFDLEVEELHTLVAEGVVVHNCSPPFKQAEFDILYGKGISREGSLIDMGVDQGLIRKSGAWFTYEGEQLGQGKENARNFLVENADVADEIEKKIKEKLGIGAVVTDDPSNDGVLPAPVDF

[11] = target: T4, Sentrin-specific protease 8; type: functional; remark: listed apart in the source
[12] = target: T6, Replicative DNA helicase DnaB (Mycobacterium tuberculosis, UniProt P9WMR3); experiment: DnaB intein splicing inhibitors, dose response, biochemical, cell-free fluorescence (AID 449749); type: functional
T6 sequence (P9WMR3 whole entry): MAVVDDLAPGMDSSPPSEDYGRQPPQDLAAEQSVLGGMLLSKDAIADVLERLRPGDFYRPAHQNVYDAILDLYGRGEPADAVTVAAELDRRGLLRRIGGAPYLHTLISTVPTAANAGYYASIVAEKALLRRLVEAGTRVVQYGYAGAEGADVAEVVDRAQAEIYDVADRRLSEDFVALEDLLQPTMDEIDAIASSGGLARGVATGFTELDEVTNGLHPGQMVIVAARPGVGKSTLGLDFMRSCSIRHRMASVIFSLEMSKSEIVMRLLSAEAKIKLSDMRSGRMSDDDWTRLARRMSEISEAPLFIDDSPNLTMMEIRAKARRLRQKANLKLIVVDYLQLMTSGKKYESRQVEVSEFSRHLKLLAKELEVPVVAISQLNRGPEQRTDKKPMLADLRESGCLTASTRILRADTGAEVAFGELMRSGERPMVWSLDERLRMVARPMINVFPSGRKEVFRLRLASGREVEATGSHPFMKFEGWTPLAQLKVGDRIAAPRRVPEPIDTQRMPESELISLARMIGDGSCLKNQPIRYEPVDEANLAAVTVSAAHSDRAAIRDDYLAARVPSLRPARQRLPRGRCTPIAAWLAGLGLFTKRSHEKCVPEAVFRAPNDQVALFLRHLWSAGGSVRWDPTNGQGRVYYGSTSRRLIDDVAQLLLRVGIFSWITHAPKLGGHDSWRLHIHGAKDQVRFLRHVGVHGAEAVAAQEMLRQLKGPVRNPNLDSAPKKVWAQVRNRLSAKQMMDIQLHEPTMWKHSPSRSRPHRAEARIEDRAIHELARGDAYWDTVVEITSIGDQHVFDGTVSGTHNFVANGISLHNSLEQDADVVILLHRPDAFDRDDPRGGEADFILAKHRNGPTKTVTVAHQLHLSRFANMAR

[13] = non-specific 3'UTR reporter inhibition in Clone20-Shn3RL – cell-based, Renilla luciferase, cherry-picked, counter-screen for Shn3 inhibitor project, dose response (AID 624133); type: functional
[14] = Potency on glucagon-like peptide 1 release, dose-response in NCI-H716 cell line, half maximal inhibitory concentration (AID 1117344); type: functional, cell-based
INS1 = experiment: INS-1E survival protection against cytokine death – cell-based, luminescence, retest, dose response (AID 449756); type: functional; details: Rattus norvegicus;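 note: cell death triggered by IL-1 beta plus TNF-alpha plus IFN-gamma mixture; protective hits raise ATP signal compared with cytokine alone wells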
[15] = target: T7, Ubiquitin-conjugating enzyme E2 N (Homo sapiens, UniProt P61088); type: functional;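 note: Dose-response confirmation in a TR-FRET assay detecting UBC13-driven polyubiquitin chain formation, inhibition measured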
T7 sequence (P61088 whole entry): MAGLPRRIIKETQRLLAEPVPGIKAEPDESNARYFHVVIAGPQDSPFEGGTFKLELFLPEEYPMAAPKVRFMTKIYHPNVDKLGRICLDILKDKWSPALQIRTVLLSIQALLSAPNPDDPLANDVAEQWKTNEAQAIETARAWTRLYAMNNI

[16] = microbe, parasite or virus in culture; type: functional; details: Mycobacterium tuberculosis
[17] = Luminescence Cell-Based Dose Retest to Confirm Inhibitors of Cancer Stem Cells. [Related pubchem assays (depositor defined):AID2717, AID2721]; type: functional; details: Homo sapiens
[18] = glucagon-like peptide-1 release potency in STC-1, concentration-response, half-maximal inhibitory concentration in the STC-1 line (AID 1117345); type: functional, cell-based
[19] = reduction of Shn3 3'UTR-driven luciferase in osteoblasts – cell-based, Clone20 osteoblasts, firefly luciferase, cherry-picked, dose response (AID 624132); type: functional;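 note: firefly luciferase luminescence from reporter carrying the Shn3 3'UTR in osteoblasts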
Ephrin type-A receptor 4 = Ephrin type-A receptor 4 (Mus musculus, UniProt Q03137); experiment: EphA4 ligand-binding antagonists – biochemical, colorimetric, mouse EphA4, primary screen (AID 689); type: functional
[20] = target: T8, Heat shock factor protein 1 (Mus musculus, UniProt P38532); experiment: decrease of HSF1-responsive luciferase luminescence – cell-based, NIH3T3, dose retest, confirmation (AID 2382); type: functional;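 note: NIH3T3 fibroblasts with HSF1-driven luciferase reporter stressed by proteasome inhibitor MG132; luminescence from HSF1-driven luciferase expression after 8 hours of MG132 stress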
T8 sequence (P38532 whole entry): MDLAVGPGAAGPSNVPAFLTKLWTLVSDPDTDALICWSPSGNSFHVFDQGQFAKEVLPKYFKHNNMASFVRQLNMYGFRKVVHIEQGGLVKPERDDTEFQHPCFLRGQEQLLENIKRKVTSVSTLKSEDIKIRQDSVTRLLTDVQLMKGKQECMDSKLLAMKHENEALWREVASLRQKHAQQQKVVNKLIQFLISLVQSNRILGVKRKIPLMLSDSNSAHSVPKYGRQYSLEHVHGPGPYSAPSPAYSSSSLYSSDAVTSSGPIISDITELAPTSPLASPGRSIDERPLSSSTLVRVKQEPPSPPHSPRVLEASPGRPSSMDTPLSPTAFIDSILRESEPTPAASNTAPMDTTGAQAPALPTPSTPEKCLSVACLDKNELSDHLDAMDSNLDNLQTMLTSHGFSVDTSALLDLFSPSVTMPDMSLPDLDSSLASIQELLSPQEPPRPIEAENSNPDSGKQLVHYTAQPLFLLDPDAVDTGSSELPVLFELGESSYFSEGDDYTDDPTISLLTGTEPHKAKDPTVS

Vero = experiment: Vero cell viability after compound exposure – synthesized analogs, set II, cytotoxicity control for West Nile virus antiviral project, SAR follow-up (AID 2402); type: functional; details: Chlorocebus sabaeus

T3 sequence (Q92731 whole entry): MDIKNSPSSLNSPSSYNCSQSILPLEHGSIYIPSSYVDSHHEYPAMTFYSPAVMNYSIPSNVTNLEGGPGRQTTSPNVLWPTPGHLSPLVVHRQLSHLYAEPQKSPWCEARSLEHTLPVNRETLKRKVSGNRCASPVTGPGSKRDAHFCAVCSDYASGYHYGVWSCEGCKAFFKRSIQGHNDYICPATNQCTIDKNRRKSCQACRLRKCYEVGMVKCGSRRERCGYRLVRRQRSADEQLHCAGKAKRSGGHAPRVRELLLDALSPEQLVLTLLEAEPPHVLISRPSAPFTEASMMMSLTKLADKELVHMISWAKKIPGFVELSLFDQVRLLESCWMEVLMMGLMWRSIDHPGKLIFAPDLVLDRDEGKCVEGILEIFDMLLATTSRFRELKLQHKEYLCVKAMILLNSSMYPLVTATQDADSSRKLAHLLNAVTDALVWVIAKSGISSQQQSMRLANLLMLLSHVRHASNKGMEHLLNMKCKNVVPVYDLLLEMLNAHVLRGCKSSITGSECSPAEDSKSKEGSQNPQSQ
Chain of Ephrin type-A receptor 4 (Q03137 whole entry): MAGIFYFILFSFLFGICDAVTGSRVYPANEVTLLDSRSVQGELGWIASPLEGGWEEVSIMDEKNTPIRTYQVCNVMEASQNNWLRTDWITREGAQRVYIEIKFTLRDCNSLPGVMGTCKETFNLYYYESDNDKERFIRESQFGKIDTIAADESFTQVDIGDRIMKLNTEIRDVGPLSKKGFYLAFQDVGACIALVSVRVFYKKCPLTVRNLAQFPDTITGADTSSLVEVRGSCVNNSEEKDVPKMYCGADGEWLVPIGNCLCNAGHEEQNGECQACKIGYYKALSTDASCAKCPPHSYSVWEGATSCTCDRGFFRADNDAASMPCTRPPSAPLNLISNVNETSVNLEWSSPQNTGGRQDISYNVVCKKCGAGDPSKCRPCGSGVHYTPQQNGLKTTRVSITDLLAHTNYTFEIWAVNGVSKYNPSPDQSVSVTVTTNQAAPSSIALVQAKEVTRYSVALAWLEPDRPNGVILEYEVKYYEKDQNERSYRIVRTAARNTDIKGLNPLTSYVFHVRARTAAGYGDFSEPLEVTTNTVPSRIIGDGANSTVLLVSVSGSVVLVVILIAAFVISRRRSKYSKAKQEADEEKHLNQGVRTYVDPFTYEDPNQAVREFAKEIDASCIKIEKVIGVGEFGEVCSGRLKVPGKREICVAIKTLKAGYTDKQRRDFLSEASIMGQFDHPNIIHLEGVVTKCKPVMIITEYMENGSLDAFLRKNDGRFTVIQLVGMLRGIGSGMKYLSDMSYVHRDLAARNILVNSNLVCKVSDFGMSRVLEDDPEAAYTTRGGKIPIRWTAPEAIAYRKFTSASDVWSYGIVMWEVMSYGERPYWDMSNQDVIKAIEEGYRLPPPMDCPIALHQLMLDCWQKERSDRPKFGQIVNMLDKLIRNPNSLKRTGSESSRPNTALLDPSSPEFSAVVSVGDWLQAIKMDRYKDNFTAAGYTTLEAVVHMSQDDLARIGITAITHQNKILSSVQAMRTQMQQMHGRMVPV
T2 sequence (P49327 whole entry): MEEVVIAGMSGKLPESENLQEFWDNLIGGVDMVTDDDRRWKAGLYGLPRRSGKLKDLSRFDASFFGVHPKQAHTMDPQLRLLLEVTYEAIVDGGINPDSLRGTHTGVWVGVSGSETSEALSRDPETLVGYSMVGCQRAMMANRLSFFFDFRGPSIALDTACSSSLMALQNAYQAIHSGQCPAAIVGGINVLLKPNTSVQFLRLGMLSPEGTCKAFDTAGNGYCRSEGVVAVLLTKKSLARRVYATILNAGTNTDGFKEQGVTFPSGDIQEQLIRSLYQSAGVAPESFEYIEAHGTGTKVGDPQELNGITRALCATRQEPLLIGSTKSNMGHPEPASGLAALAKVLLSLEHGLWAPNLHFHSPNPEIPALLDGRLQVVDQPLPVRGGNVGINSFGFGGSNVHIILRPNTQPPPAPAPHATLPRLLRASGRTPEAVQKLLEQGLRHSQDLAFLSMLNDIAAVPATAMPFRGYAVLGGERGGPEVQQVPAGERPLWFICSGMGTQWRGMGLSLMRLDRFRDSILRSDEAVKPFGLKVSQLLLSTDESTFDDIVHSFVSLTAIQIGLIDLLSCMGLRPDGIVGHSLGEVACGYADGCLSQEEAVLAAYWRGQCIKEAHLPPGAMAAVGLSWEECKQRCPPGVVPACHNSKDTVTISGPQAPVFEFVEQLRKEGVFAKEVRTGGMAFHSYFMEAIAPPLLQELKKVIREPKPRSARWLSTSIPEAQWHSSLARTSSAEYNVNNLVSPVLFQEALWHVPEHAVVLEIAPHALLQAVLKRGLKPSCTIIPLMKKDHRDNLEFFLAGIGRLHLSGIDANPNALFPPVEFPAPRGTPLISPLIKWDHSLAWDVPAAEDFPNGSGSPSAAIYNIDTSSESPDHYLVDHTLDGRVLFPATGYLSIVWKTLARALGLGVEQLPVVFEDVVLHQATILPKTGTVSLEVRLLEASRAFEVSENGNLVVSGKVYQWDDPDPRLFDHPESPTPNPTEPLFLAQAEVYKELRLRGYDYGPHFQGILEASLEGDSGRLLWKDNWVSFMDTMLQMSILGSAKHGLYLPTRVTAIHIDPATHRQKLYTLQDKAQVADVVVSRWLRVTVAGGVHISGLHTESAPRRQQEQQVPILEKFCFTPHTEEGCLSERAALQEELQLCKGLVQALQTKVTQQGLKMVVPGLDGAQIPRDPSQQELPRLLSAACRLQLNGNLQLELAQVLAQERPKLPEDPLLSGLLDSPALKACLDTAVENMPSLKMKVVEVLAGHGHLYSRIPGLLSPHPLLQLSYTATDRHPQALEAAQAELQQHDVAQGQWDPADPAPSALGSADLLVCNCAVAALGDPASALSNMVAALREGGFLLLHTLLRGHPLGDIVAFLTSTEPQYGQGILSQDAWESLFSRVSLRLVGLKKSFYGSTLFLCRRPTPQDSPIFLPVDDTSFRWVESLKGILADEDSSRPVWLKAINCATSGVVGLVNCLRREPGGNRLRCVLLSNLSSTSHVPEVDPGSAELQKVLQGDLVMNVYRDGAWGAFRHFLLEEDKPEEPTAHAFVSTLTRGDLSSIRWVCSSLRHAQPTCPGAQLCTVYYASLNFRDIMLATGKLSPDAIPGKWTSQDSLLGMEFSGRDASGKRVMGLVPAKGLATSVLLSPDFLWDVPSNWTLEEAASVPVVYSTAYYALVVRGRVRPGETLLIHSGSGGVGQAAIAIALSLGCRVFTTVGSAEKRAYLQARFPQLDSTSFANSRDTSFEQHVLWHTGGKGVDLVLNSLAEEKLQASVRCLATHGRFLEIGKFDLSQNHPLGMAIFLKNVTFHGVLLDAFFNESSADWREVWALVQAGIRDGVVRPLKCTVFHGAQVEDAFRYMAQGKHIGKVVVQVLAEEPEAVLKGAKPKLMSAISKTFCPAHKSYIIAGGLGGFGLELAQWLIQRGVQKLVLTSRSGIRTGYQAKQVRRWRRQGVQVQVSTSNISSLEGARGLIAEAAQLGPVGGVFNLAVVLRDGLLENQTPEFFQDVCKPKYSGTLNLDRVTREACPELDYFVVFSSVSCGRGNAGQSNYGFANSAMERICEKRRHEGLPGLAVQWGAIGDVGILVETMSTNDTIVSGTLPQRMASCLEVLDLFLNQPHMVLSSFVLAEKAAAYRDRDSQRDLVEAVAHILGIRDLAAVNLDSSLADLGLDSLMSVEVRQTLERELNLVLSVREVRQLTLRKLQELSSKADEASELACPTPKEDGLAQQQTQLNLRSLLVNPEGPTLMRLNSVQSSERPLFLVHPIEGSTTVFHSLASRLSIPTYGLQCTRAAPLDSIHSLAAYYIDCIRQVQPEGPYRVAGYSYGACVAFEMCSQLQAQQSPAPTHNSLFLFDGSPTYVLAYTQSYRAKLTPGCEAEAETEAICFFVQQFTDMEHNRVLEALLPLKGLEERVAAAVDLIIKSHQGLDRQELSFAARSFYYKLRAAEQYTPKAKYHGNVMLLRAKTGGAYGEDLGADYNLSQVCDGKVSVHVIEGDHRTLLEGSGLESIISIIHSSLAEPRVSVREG
Chain of Mitogen-activated protein kinase 10 (P53779 whole entry): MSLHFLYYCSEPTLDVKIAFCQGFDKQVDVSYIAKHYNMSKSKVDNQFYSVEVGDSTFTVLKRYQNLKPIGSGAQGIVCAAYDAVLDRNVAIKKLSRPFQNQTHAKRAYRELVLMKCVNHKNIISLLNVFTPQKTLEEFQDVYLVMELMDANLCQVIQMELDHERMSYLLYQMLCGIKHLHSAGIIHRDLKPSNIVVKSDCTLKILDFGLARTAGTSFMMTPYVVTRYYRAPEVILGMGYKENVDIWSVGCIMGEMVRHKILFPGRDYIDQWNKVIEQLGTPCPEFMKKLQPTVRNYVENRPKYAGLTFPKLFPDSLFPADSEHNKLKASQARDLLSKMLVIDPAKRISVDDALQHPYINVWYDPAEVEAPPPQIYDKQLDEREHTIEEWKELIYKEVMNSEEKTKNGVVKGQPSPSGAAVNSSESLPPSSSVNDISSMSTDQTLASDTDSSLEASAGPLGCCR

Compound: COC(=O)c1cc(C(=O)Nc2nnc(C3CC3)s2)cc([N+](=O)[O-])c1
- EC50 [1]: 3.02 µM (active)
- IC50 (Fatty acid synthase [2]): 9.7 µM (active)
- IC50 (Fatty acid synthase [3]): 13.8 µM (active)

Compound: CCOc1ccc(NC(=O)c2cc3ccccc3cc2OC)cc1
- EC50 [1]: 2.17 µM (active)

Compound: Cc1cc(=O)[nH]c(SCC(=O)Nc2nc3c(s2)CCCC3)n1
- IC50 (Estrogen receptor beta [4]): > 50 µM (not active)

Compound: Cn1nc(C(=O)Nc2sccc2C(N)=O)ccc1=O
- IC50 (Estrogen receptor beta [5]): > 50 µM (not active)

Compound: CC1=C(C(=O)OC2CCCCCCC2)C(c2ccc(O)cc2)NC(=O)N1 (stereo not drawn)
- EC50 [6]: > 120 µM (not active)
- IC50 [7]: 41.9 µM (not active)
- EC50 [8]: 21.1 µM (active)
- EC50 [9]: 23.9 µM (active)

Compound: CC1=CC2(O)OCCN(CCO)C2=CC1=O (stereo not drawn)
- IC50 (Estrogen receptor beta [5]): < 0.023 µM (not active)
- IC50 [10]: > 100 µM (inactive)
- EC50 (Protein RecA): 10.2 µM (active)
- IC50 [11]: 22.3 µM (active)
- AC50 [12]: 16.9 µM (active)

Compound: CCCCCCCCNC(C)C(O)c1ccc(SC(C)C)cc1 (stereo not drawn) [SULOCTIDIL]
- AC50 [13]: 8.28 µM (active)
- IC50 [14]: 13 µM (inactive)
- AC50 (INS1): 8.21 µM (active)
- IC50 [15]: > 20 µM (inactive)
- CC50 [16]: 17.3 µM (active)
- AC50 [17]: 2.11 µM (active)
- IC50 [18]: > 40 µM (inactive)
- AC50 [19]: 3.94 µM (active)

Compound: O=C(CCCn1c(=S)[nH]c2cc3c(cc2c1=O)OCO3)N1CCc2ccccc2C1
- IC50 (Estrogen receptor beta [4]): > 50 µM (not active)

Compound: COc1ccc(OC)c(NC(=O)CSc2nc3ccccc3cc2Cc2ccccc2)c1
- IC50 (Ephrin type-A receptor 4): > 100 µM (not active)
- EC50 [20]: > 195 µM (not active)

Compound: OC1c2c(F)cccc2N=C2CCCCN21 (stereo not drawn)
- CC50 (Vero): > 200 µM (active)

Compound: O=C1/C(=C\c2nc3ccccc3[nH]2)SC(=S)N1c1ccc(F)cc1
- IC50 (Ephrin type-A receptor 4): > 100 µM (not active)

Source: ChEMBL document CHEMBL1201862, “PubChem BioAssay data set” (2004)
